Results reported in ChEMBL document CHEMBL1138125, “A new chemical tool for exploring the role of the PDE4D isozyme in leukocyte function” (Bioorg Med Chem Lett, 2006).

Tests used:
[1] = biological target: cGMP-dependent 3',5'-cyclic phosphodiesterase (Homo sapiens, UniProt O00408); assay: Inhibition of PDE2
Phosphodiesterase 3 = Phosphodiesterase 3 (Homo sapiens, UniProt Q14432+Q13370); assay: Inhibition of PDE3; format: protein assay
[2] = biological target: High affinity cAMP-specific and IBMX-insensitive 3',5'-cyclic phosphodiesterase 8A (Homo sapiens, UniProt O60658); assay: Inhibition of PDE8A
High affinity cAMP-specific and IBMX-insensitive 3',5'-cyclic phosphodiesterase 8A, sequence (O60658 whole entry): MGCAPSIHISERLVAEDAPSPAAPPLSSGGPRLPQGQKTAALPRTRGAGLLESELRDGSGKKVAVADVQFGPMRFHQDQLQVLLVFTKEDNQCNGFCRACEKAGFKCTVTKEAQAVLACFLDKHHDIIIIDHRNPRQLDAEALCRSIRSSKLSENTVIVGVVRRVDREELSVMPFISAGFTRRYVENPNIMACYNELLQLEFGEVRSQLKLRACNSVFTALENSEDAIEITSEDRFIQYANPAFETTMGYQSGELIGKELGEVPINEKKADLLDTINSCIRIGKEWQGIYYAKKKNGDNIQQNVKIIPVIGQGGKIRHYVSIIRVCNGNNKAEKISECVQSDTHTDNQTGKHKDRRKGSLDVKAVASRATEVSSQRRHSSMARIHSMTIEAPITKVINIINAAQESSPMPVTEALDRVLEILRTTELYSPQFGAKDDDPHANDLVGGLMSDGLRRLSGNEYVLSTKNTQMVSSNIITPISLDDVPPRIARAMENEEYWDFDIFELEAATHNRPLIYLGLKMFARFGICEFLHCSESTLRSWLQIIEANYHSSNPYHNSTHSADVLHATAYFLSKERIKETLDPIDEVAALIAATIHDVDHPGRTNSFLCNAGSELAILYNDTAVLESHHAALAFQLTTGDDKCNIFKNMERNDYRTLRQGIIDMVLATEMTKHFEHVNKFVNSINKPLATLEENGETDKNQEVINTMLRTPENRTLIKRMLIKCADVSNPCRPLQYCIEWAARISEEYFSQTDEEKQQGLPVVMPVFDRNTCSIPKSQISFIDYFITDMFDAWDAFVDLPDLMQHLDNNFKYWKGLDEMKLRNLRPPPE

[3] = biological target: High affinity cAMP-specific and IBMX-insensitive 3',5'-cyclic phosphodiesterase 8B (Homo sapiens, UniProt O95263); assay: Inhibition of PDE8B
High affinity cAMP-specific and IBMX-insensitive 3',5'-cyclic phosphodiesterase 8B, sequence (O95263 whole entry): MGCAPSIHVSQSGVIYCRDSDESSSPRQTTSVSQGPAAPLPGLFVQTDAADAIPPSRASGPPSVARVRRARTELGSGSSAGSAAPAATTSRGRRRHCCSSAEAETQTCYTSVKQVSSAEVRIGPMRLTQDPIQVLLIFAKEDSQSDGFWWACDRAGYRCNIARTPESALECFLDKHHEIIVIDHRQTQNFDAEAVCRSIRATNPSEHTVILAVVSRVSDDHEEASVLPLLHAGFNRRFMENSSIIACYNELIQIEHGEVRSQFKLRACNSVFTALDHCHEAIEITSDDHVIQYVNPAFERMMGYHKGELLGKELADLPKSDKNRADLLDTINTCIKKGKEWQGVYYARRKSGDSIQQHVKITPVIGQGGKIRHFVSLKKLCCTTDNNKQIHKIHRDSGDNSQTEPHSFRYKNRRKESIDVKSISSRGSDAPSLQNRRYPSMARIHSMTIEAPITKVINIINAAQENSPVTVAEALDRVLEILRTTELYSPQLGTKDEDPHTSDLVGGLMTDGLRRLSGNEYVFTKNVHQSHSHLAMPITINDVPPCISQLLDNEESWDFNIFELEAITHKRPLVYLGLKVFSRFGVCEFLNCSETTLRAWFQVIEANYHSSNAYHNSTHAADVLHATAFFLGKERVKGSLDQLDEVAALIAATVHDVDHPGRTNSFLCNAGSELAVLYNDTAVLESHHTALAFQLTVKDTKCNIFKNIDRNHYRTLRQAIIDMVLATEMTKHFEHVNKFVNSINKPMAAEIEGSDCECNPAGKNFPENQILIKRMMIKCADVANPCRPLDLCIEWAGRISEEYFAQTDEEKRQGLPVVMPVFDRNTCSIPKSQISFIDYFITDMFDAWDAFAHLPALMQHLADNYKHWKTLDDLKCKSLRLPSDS

[4] = biological target: High affinity cGMP-specific 3',5'-cyclic phosphodiesterase 9A (Homo sapiens, UniProt O76083); assay: Inhibition of PDE9
High affinity cGMP-specific 3',5'-cyclic phosphodiesterase 9A, sequence (O76083 whole entry): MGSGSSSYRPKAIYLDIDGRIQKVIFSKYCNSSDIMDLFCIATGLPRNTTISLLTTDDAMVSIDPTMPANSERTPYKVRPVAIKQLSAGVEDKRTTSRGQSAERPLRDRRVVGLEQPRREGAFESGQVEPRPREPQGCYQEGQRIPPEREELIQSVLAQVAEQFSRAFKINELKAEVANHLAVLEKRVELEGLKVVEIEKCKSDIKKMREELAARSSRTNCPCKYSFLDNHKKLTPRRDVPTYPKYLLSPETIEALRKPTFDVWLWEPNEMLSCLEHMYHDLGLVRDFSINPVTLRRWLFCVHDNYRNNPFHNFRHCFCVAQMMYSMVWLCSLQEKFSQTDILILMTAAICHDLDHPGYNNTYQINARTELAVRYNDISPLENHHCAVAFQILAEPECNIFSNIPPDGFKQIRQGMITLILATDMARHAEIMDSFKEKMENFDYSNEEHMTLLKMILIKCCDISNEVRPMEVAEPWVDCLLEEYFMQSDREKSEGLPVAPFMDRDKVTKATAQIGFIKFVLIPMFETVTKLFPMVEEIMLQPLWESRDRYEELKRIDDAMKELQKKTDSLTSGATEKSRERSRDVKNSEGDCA

[5] = biological target: Dual 3',5'-cyclic-AMP and -GMP phosphodiesterase 11A (Homo sapiens, UniProt Q9HCR9); assay: Inhibition of PDE11
[6] = biological target: T1, 3',5'-cyclic-AMP phosphodiesterase 4D (Homo sapiens, UniProt Q08499); details: Blood
T1 sequence (Q08499 whole entry): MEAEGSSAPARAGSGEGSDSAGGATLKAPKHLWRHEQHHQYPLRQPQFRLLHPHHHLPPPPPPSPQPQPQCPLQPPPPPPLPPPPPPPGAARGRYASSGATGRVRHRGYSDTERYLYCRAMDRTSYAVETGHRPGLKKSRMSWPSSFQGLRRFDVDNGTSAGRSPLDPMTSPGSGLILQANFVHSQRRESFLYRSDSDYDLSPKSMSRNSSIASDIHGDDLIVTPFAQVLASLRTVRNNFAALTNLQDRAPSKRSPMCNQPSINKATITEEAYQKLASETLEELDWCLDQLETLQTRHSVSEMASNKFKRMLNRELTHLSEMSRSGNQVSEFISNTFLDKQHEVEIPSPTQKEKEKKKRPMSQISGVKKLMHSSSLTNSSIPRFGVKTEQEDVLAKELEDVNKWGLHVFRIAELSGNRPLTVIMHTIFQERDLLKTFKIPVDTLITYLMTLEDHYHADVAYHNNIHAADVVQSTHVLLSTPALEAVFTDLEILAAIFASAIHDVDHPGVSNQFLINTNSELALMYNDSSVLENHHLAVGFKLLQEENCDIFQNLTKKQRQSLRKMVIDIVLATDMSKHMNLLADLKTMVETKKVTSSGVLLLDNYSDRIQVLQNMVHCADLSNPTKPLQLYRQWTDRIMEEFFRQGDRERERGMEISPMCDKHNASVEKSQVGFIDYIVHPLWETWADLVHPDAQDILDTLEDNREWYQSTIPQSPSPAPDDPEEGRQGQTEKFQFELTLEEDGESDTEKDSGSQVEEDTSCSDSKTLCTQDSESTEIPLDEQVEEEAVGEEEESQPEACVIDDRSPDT
Description: Inhibition of release of Eosinophil derived neurotoxin in human whole blood

[7] = biological target: T1, 3',5'-cyclic-AMP phosphodiesterase 4D; assay: Inhibition of release of LTE4 in human whole blood; format: functional, tissue-based
[8] = biological target: T2, 3',5'-cyclic-AMP phosphodiesterase 4B (Homo sapiens, UniProt Q07343); assay: Inhibition of release of TNF alpha in human whole blood; format: functional, tissue-based
T2 sequence (Q07343 whole entry): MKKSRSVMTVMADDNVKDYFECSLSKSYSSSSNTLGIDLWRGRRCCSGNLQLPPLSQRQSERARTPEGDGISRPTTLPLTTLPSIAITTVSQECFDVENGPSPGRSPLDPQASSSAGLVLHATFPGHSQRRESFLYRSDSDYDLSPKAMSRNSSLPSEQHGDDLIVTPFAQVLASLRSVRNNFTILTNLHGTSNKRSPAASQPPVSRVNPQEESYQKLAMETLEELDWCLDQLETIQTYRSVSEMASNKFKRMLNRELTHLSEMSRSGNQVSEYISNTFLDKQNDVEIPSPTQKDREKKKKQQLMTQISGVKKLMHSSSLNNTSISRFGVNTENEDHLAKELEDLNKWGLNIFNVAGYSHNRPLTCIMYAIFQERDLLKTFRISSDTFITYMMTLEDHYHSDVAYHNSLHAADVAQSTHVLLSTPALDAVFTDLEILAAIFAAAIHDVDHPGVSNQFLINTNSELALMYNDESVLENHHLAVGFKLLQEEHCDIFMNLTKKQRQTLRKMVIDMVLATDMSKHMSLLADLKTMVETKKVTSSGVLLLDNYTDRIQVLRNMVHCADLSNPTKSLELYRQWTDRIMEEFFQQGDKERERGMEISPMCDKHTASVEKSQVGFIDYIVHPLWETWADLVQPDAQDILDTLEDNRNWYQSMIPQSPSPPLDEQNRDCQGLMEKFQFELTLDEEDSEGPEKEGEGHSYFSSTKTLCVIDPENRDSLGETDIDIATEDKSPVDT

Cynomolgus monkey = assay: Inhibition of eosinophil infiltration in bronchoalveolar lavage fluid from cynomolgus monkeys exposed to Ascaris suum.; format: functional, Macaca fascicularis, Lung
[9] = biological target: 5-hydroxytryptamine receptor 7 (Homo sapiens) (UniProt P34969); assay: Binding affinity to serotonin 5HT7 receptor at 10 uM
[10] = biological target: 3',5'-cyclic-AMP phosphodiesterase 4A (Homo sapiens, UniProt P27815); assay: Inhibition of PDE4A
[11] = biological target: T2, 3',5'-cyclic-AMP phosphodiesterase 4B; assay: Inhibition of PDE4B
[12] = biological target: 3',5'-cyclic-AMP phosphodiesterase 4C (Homo sapiens, UniProt Q08493); assay: Inhibition of PDE4C
[13] = biological target: T1, 3',5'-cyclic-AMP phosphodiesterase 4D; assay: Inhibition of PDE4D
[14] = biological target: cGMP-specific 3',5'-cyclic phosphodiesterase (Homo sapiens, UniProt O76074); assay: Inhibition of PDE5
[15] = biological target: cAMP and cAMP-inhibited cGMP 3',5'-cyclic phosphodiesterase 10A (Homo sapiens, UniProt Q9Y233); assay: Inhibition of PDE10
[16] = biological target: T1, 3',5'-cyclic-AMP phosphodiesterase 4D; assay: cAMP elevation in U937 cells; format: functional, cell-based, U-937
[17] = biological target: 5-hydroxytryptamine receptor 1A (Homo sapiens) (UniProt P08908); assay: Binding affinity to serotonin 5HT1A receptor at 10 uM
[18] = biological target: Serotonin 3 (5-HT3) receptor (Homo sapiens) (UniProt P46098+A5X5Y0+O95264+Q70Z44+Q8WXA8); assay: Binding affinity to serotonin 5HT3 receptor at 10 uM; format: protein-complex assay
[19] = biological target: 5-hydroxytryptamine receptor 4 (Homo sapiens) (UniProt Q13639); assay: Binding affinity to serotonin 5HT4 receptor at 10 uM
[20] = biological target: Sodium-dependent serotonin transporter (Homo sapiens) (UniProt P31645); assay: Binding affinity to serotonin transporter at 10 uM
[21] = biological target: Glucocorticoid receptor (Homo sapiens) (UniProt P04150); assay: Binding affinity to glucocorticoid receptor at 10 uM
[22] = biological target: Thyroid hormone receptor (Homo sapiens) (UniProt P10827+P10828); assay: Binding affinity to thyroid hormone receptor at 10 uM; format: protein-complex assay
[23] = biological target: Vasopressin V1 receptor (Homo sapiens) (UniProt P37288+P47901); assay: Binding affinity to vasopressin V1 receptor at 10 uM; format: protein assay
[24] = biological target: Vasopressin V2 receptor (Homo sapiens) (UniProt P30518); assay: Binding affinity to vasopressin V2 receptor at 10 uM
[25] = biological target: T3, Voltage-gated L-type calcium channel (Homo sapiens, UniProt Q13936+Q13698+Q01668+O60840); assay: Binding affinity to DHP sensitive calcium channel L type at 10 uM; format: protein assay
[26] = biological target: T3, Voltage-gated L-type calcium channel; assay: Binding affinity to dilitiazem sensitive calcium channel L type at 10 uM; format: protein assay
[27] = biological target: T3, Voltage-gated L-type calcium channel; assay: Binding affinity to verapamil sensitive calcium channel L type at 10 uM; format: protein assay
[28] = biological target: Voltage-dependent N-type calcium channel subunit alpha-1B (Homo sapiens) (UniProt Q00975); assay: Binding affinity to calcium channel N type at 10 uM
[29] = biological target: Type-1 angiotensin II receptor (Homo sapiens) (UniProt P30556); assay: Binding affinity to angiotensin II receptor type 1 at 10 uM
[30] = biological target: Type-2 angiotensin II receptor (Homo sapiens) (UniProt P50052); assay: Binding affinity to angiotensin II receptor type 2 at 10 uM
[31] = biological target: B1 bradykinin receptor (Homo sapiens) (UniProt P46663); assay: Binding affinity to bradykinin B1 receptor at 10 uM
[32] = biological target: B2 bradykinin receptor (Homo sapiens) (UniProt P30411); assay: Binding affinity to bradykinin B2 receptor at 10 uM
[33] = biological target: D(1A) dopamine receptor (Homo sapiens) (UniProt P21728); assay: Binding affinity to dopamine D1 receptor at 10 uM
[34] = biological target: D(2) dopamine receptor (Homo sapiens) (UniProt P14416); assay: Binding affinity to dopamine D2 receptor at 10 uM
[35] = biological target: D(3) dopamine receptor (Homo sapiens) (UniProt P35462); assay: Binding affinity to dopamine D3 receptor at 10 uM
[36] = biological target: D(4) dopamine receptor (Homo sapiens) (UniProt P21917); assay: Binding affinity to dopamine D4 receptor at 10 uM
[37] = biological target: Sodium-dependent dopamine transporter (Homo sapiens) (UniProt Q01959); assay: Binding affinity to dopamine transporter at 10 uM
[38] = Binding affinity to GABA receptor at 10 uM
[39] = Binding affinity to GABA transporter at 10 uM
[40] = biological target: Glutamate receptor ionotropic AMPA (Homo sapiens) (UniProt P48058+P42263+P42262+P42261); assay: Binding affinity to AMPA receptor at 10 uM; format: protein-complex assay
[41] = biological target: Glutamate receptor ionotropic kainate (Homo sapiens) (UniProt P39086+Q16478+Q16099+Q13002+Q13003); assay: Binding affinity to kainate receptor at 10 uM; format: protein-complex assay
[42] = biological target: Glutamate [NMDA] receptor (Homo sapiens) (UniProt Q05586+Q12879+Q13224+O15399+O60391+Q14957+Q8TCU5); assay: Binding affinity to NMDA receptor at 10 uM; format: protein-complex assay
[43] = biological target: Histamine H1 receptor (Homo sapiens) (UniProt P35367); assay: Binding affinity to Histamine H1 receptor at 10 uM
[44] = biological target: Histamine H2 receptor (Homo sapiens) (UniProt P25021); assay: Binding affinity to Histamine H2 receptor at 10 uM
[45] = biological target: Histamine H3 receptor (Homo sapiens) (UniProt Q9Y5N1); assay: Binding affinity to Histamine H3 receptor at 10 uM
[46] = biological target: Melanocortin receptor 4 (Homo sapiens) (UniProt P32245); assay: Binding affinity to MCR4 at 10 uM
[47] = biological target: Muscarinic acetylcholine receptor M1 (Homo sapiens) (UniProt P11229); assay: Binding affinity to Muscarinic M1 receptor at 10 uM
[48] = biological target: Muscarinic acetylcholine receptor M2 (Homo sapiens) (UniProt P08172); assay: Binding affinity to Muscarinic M2 receptor at 10 uM
[49] = biological target: Muscarinic acetylcholine receptor M3 (Homo sapiens) (UniProt P20309); assay: Binding affinity to Muscarinic M3 receptor at 10 uM
[50] = biological target: Muscarinic acetylcholine receptor M4 (Homo sapiens) (UniProt P08173); assay: Binding affinity to Muscarinic M4 receptor at 10 uM
[51] = biological target: High affinity choline transporter 1 (Homo sapiens) (UniProt Q9GZV3); assay: Binding affinity to choline transporter at 10 uM
[52] = biological target: Substance-P receptor (Homo sapiens) (UniProt P25103); assay: Binding affinity to neurokinin K1 receptor at 10 uM
[53] = Binding affinity to nicotinic neuronal receptor at 10 uM
[54] = biological target: Acetylcholine receptor; alpha1/beta1/delta/gamma (Homo sapiens) (UniProt P02708+P07510+P11230+Q07001); assay: Binding affinity to nicotinic muscle receptor at 10 uM; format: protein-complex assay
[55] = biological target: Delta-type opioid receptor (Homo sapiens) (UniProt P41143); assay: Binding affinity to opiate delta receptor at 10 uM
[56] = biological target: Kappa-type opioid receptor (Homo sapiens) (UniProt P41145); assay: Binding affinity to opiate kappa receptor at 10 uM
[57] = biological target: Mu-type opioid receptor (Homo sapiens) (UniProt P35372); assay: Binding affinity to opiate mu receptor at 10 uM
[58] = biological target: Platelet-activating factor receptor (Homo sapiens) (UniProt P25105); assay: Binding affinity to platelet activating factor at 10 uM
[59] = biological target: Adenosine receptor A1 (Homo sapiens) (UniProt P30542); assay: Binding affinity to adenosine A1 receptor at 10 uM
[60] = biological target: Adenosine receptor A2a (Homo sapiens) (UniProt P29274); assay: Binding affinity to adenosine A2A receptor at 10 uM
[61] = biological target: Adenosine receptor A3 (Homo sapiens) (UniProt P0DMS8); assay: Binding affinity to adenosine A3 receptor at 10 uM
[62] = biological target: Adrenergic receptor alpha-1 (Homo sapiens) (UniProt P35348+P25100+P35368); assay: Binding affinity to Adrenergic alpha-1 receptor at 10 uM; format: protein assay
[63] = biological target: Adrenergic receptor alpha-2 (Homo sapiens) (UniProt P08913+P18825+P18089); assay: Binding affinity to Adrenergic alpha-2 receptor at 10 uM; format: protein assay
[64] = biological target: Beta-1 adrenergic receptor (Homo sapiens) (UniProt P08588); assay: Binding affinity to adrenergic beta-1 receptor at 10 uM
[65] = biological target: Beta-2 adrenergic receptor (Homo sapiens) (UniProt P07550); assay: Binding affinity to adrenergic beta2 receptor at 10 uM
[66] = biological target: Sodium-dependent noradrenaline transporter (Homo sapiens) (UniProt P23975); assay: Binding affinity to norepinephrine transporter at 10 uM

cGMP-dependent 3',5'-cyclic phosphodiesterase, sequence (O00408 whole entry): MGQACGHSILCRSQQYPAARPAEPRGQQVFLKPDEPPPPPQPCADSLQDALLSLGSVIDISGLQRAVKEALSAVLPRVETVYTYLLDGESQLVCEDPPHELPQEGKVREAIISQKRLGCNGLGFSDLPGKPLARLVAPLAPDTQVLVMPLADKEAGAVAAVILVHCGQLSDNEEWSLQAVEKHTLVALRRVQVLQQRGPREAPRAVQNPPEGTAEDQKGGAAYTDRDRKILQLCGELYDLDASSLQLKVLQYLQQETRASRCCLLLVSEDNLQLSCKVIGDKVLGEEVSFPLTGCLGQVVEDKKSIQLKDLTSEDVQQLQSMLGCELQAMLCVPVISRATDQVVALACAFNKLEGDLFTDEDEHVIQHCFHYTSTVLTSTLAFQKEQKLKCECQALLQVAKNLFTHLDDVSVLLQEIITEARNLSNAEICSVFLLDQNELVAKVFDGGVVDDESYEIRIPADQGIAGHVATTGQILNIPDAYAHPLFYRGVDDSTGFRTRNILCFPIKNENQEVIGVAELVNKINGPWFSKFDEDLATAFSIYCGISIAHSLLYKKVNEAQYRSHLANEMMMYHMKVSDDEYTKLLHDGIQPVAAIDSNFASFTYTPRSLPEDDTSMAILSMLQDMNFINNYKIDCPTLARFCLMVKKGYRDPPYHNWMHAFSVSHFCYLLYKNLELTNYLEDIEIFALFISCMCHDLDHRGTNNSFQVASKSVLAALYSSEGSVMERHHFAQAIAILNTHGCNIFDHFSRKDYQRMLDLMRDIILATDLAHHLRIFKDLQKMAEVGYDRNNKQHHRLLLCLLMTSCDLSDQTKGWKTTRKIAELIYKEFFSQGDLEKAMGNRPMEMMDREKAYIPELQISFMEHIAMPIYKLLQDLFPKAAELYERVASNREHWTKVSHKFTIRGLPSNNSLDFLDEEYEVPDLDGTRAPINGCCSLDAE

**Q.** What does the source list for COc1ccc(C2CNC(=O)C2)cc1OC1CCCC1 (centres undefined) [ROLIPRAM]?
**A.** IC50 [1]: > 16000 nM; IC50 (Phosphodiesterase 3): > 16000 nM; IC50 [2]: > 16000 nM; IC50 [3]: > 16000 nM; IC50 [4]: > 16000 nM; IC50 [5]: > 16000 nM; IC30 [6]: 283 nM

**Q.** Which results are given for C[C@@H](NC(=O)c1cccnc1Oc1ccc(F)cc1)c1cccs1?
**A.** IC50 [7]: 2 nM; IC50 [8]: 925 nM; Inhibition (Cynomolgus monkey): 65%; Activity [9]: 0%; IC50 [1]: > 16000 nM; IC50 [10]: 107 nM; IC50 (Phosphodiesterase 3): > 16000 nM; IC50 [11]: 185 nM; IC50 [12]: 1380 nM; IC50 [13]: 4 nM; IC50 [14]: > 16000 nM; IC50 [2]: > 16000 nM; IC50 [3]: > 16000 nM; IC50 [4]: > 16000 nM; IC50 [15]: > 16000 nM; EC50 [16]: 22 nM; Activity [17]: 5%; Activity [18]: 4%; Activity [19]: 14%; Activity [20]: 0%; Activity [21]: 0%; Activity [22]: 8%; Activity [23]: 26%; Activity [24]: 9%; Activity [25]: 25%; Activity [26]: 6%; Activity [27]: 0%; Activity [28]: 0%; Activity [29]: 3%; Activity [30]: 0%; Activity [31]: 0%; Activity [32]: 0%; Activity [33]: 27%; Activity [34]: 0%; Activity [35]: 0%; Activity [36]: 9%; Activity [37]: 23%; Activity [38]: 0%; Activity [39]: 22%; Activity [40]: 10%; Activity [41]: 0%; Activity [42]: 0%; Activity [43]: 4%; Activity [44]: 0%; Activity [45]: 0%; Activity [46]: 22%; Activity [47]: 0%; Activity [48]: 1%; Activity [49]: 5%; Activity [50]: 12%; Activity [51]: 60%; Activity [52]: 27%; Activity [53]: 3%; Activity [54]: 22%; Activity [55]: 18%; Activity [56]: 21%; Activity [57]: 15%; Activity [58]: 23%; Activity [59]: 12%; Activity [60]: 23%; Activity [61]: 31%; Activity [62]: 0%; Activity [63]: 0%; Activity [64]: 12%; Activity [65]: 6%; Activity [66]: 14%; IC30 [6]: 16 nM
